Data as given in BindingDB's records for doi:10.1038/nchembio.1629 (George Washington University, 2014).

What was measured:
Misshapen-like kinase 1 = Misshapen-like kinase 1 (Homo sapiens, UniProt Q8N4C8); test: Selectivity screening
Procedure: (§1) The IC50 values of selected kinases were determined using either Z'LYTE, Adapta or LanthaScreen assays.

[1] = target: Casein kinase II subunit alpha' (Homo sapiens, UniProt P19784); test: Selectivity screening
Procedure: as §1

[2] = target: Mitogen-activated protein kinase kinase kinase kinase 4 (Homo sapiens, UniProt O95819); test: Selectivity screening
Procedure: as §1

[3] = target: T1, Dual specificity mitogen-activated protein kinase kinase 3 (Homo sapiens, UniProt P46734); test: Selectivity screening
T1 sequence (P46734 whole entry): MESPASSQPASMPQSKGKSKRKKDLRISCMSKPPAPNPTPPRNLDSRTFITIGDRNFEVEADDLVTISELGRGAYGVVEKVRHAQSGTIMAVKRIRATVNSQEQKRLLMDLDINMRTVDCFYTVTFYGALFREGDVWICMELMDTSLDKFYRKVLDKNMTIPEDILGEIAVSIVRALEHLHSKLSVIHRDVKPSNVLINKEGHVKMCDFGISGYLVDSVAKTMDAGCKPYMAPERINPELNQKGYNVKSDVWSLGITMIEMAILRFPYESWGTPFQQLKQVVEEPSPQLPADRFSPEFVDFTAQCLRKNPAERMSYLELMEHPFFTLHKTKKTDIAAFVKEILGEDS
Procedure: as §1

[4] = target: Mitogen-activated protein kinase 10 (Homo sapiens, UniProt P53779); test: Selectivity screening
Procedure: as §1

[5] = target: T2, Serine/threonine-protein kinase haspin [465-798] (Homo sapiens, UniProt Q8TF76); test: Selectivity screening
T2 construct: 465-798
T2 sequence (Q8TF76 whole entry): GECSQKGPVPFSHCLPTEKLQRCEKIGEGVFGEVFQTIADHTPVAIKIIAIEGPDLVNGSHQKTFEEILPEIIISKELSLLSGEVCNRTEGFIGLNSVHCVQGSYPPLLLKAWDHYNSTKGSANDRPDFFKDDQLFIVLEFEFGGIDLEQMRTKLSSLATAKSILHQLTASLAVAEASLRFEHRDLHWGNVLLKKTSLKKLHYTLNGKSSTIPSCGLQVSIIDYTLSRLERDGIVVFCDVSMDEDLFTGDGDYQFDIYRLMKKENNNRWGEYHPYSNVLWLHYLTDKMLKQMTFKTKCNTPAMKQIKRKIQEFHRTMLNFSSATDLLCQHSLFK
Procedure: as §1

Aurora kinase C = target: T3, Aurora kinase C (Homo sapiens, UniProt Q9UQB9); test: Selectivity screening
T3 sequence (Q9UQB9 whole entry): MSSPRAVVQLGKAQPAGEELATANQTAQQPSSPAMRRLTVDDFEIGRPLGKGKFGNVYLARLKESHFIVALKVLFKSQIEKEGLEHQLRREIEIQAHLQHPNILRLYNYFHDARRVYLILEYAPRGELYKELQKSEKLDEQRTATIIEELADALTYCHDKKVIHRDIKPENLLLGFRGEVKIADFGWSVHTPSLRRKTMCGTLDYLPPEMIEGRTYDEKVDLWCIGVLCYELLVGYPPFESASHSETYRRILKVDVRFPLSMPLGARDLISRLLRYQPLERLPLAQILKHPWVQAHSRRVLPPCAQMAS
Procedure: as §1

[6] = target: T4, Dual specificity protein kinase TTK (Homo sapiens, UniProt P33981); test: Selectivity screening
T4 sequence (P33981 whole entry): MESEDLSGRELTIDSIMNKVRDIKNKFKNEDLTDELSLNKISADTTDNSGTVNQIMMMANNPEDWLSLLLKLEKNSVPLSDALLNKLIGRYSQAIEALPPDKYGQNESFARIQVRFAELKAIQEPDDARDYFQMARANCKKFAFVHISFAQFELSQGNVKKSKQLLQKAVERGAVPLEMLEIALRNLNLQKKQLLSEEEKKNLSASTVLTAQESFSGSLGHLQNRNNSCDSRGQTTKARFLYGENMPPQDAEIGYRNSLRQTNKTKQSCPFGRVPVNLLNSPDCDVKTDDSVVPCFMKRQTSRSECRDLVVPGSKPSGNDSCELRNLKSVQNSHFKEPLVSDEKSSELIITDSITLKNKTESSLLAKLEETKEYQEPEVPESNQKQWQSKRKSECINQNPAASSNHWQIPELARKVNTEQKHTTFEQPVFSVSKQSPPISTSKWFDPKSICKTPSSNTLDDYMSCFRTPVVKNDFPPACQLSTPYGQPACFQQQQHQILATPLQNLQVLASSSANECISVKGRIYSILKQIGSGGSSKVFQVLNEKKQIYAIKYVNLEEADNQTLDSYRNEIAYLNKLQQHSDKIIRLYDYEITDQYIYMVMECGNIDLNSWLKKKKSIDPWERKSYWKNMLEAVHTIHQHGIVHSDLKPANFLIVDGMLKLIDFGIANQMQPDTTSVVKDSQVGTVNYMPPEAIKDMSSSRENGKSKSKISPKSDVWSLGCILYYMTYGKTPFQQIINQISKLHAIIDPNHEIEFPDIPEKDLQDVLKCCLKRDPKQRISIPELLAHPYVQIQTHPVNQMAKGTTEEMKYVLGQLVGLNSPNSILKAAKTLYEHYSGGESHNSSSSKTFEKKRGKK
Procedure: as §1

[7] = target: T5, Serine/threonine-protein kinase D1 (Homo sapiens, UniProt Q15139); test: Selectivity screening
T5 sequence (Q15139 whole entry): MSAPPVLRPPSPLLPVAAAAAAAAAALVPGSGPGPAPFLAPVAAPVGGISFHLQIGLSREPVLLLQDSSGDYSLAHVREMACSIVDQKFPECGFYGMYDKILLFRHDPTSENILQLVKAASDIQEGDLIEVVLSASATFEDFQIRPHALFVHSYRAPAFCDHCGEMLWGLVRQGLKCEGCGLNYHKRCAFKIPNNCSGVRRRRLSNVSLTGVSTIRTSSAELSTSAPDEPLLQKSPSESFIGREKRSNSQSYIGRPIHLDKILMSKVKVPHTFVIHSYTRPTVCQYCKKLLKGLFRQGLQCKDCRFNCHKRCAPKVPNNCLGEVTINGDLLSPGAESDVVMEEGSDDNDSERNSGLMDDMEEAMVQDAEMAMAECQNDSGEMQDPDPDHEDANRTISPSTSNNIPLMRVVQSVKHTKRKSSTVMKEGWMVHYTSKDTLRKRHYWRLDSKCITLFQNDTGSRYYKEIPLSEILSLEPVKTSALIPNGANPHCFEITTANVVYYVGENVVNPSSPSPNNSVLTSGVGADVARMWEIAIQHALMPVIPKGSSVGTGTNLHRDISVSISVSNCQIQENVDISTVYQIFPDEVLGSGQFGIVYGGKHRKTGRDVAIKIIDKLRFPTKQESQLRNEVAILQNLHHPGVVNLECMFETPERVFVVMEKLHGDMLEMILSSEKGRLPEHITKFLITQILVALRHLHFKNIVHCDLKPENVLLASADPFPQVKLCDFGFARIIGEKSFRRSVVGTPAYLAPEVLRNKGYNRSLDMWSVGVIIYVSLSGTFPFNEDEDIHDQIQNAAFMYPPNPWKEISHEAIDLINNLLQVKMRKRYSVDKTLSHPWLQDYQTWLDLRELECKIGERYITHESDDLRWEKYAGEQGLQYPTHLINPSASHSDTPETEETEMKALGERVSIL
Procedure: as §1

[8] = target: T6, Mitogen-activated protein kinase 3 (Homo sapiens, UniProt P27361); test: Selectivity screening
Procedure: as §1

[9] = target: T7, Mitogen-activated protein kinase 8 [1-363] (Homo sapiens, UniProt P45983); test: Selectivity screening
T7 construct: 1-363
Procedure: as §1

[10] = target: T8, Serine/threonine-protein kinase 17A (Homo sapiens, UniProt Q9UEE5); test: Selectivity screening
T8 sequence (Q9UEE5 whole entry): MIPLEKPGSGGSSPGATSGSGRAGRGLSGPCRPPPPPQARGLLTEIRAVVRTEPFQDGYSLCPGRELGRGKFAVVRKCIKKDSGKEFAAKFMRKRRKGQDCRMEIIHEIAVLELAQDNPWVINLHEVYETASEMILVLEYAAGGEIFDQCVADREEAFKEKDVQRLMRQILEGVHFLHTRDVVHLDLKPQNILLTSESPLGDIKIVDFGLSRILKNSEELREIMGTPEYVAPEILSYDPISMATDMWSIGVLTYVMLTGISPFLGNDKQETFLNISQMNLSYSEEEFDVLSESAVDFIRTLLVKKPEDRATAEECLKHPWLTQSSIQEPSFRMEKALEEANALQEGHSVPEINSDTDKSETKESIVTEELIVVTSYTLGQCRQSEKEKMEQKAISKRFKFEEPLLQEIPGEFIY
Procedure: as §1

[11] = target: Dual specificity protein kinase CLK2 (Homo sapiens, UniProt P49760); test: Selectivity screening
Procedure: as §1

[12] = target: Dual specificity protein kinase CLK1 (Homo sapiens, UniProt P49759); test: Selectivity screening
Procedure: as §1

[13] = target: Mitogen-activated protein kinase 9 (Homo sapiens, UniProt P45984); test: Selectivity screening
Procedure: as §1

[14] = target: T2, Serine/threonine-protein kinase haspin [465-798]; test: ITC; settings: pH 7.5; 15 °C
Procedure: (§2) For ERK1 and ERK2, the buffer contained 20 mM HEPES (pH 7.5), 150 mM NaCl and 0.5 mM TCEP. For haspin, the buffer contained 20 mM HEPES (pH 7.5), 250 mM NaCl and 0.5 mM TCEP. Titration was performed at 15 °C by injecting 100 µM protein into a reaction cell containing the inhibitors (7 µM).

[15] = target: T6, Mitogen-activated protein kinase 3; test: ITC; settings: pH 7.5; 15 °C
Procedure: as §2

T6 sequence (P27361 whole entry): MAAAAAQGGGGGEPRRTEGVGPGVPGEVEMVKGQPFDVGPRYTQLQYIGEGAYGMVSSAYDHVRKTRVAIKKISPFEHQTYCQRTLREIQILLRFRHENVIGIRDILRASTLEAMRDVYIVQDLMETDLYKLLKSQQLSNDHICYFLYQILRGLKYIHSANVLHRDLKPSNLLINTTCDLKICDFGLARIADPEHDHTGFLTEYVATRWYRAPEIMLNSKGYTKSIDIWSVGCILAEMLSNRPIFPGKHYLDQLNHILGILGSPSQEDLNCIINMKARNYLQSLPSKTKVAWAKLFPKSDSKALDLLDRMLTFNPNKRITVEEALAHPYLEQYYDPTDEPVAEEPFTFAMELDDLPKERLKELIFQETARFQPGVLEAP
Misshapen-like kinase 1, sequence (Q8N4C8 whole entry): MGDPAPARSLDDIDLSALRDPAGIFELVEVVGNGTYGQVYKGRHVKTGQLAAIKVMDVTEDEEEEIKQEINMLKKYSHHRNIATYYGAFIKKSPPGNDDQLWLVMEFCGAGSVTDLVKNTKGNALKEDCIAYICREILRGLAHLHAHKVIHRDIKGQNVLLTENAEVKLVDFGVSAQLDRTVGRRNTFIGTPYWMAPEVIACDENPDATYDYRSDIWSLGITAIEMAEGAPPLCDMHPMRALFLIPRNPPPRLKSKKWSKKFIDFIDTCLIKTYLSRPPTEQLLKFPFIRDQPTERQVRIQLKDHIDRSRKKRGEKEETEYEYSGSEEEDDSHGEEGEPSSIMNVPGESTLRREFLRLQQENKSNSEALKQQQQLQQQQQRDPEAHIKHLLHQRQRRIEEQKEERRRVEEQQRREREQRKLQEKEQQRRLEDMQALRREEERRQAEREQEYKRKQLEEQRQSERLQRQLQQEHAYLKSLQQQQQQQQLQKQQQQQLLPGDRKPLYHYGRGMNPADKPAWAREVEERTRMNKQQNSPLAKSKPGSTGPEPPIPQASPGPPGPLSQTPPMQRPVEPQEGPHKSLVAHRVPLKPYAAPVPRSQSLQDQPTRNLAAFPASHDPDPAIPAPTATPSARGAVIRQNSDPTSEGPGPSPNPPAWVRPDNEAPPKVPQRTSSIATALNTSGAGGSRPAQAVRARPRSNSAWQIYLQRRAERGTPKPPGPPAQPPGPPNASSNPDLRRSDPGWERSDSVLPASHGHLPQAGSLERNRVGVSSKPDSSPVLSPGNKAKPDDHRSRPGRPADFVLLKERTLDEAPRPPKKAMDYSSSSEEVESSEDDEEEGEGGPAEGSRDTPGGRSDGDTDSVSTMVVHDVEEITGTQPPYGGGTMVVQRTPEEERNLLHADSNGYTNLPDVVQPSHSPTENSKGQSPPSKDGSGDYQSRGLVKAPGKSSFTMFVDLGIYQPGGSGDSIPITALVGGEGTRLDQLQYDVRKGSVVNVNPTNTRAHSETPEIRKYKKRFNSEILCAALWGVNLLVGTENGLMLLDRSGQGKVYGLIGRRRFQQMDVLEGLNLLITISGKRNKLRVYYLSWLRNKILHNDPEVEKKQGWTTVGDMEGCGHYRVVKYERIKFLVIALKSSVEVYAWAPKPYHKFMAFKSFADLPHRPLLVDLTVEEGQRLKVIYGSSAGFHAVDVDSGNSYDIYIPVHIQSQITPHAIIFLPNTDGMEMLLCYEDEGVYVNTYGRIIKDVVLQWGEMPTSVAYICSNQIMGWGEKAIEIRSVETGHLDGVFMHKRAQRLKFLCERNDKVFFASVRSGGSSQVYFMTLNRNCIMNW
Casein kinase II subunit alpha', sequence (P19784 whole entry): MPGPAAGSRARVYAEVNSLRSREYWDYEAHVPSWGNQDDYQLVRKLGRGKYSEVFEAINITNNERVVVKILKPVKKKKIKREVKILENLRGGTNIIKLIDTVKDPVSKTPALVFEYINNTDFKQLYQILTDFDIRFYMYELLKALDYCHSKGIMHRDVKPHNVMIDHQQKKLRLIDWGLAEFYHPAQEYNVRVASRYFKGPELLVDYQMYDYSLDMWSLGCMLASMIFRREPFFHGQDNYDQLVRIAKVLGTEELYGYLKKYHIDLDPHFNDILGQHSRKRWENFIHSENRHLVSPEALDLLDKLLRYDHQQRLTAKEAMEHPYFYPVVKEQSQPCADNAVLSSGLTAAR
Mitogen-activated protein kinase kinase kinase kinase 4, sequence (O95819 whole entry): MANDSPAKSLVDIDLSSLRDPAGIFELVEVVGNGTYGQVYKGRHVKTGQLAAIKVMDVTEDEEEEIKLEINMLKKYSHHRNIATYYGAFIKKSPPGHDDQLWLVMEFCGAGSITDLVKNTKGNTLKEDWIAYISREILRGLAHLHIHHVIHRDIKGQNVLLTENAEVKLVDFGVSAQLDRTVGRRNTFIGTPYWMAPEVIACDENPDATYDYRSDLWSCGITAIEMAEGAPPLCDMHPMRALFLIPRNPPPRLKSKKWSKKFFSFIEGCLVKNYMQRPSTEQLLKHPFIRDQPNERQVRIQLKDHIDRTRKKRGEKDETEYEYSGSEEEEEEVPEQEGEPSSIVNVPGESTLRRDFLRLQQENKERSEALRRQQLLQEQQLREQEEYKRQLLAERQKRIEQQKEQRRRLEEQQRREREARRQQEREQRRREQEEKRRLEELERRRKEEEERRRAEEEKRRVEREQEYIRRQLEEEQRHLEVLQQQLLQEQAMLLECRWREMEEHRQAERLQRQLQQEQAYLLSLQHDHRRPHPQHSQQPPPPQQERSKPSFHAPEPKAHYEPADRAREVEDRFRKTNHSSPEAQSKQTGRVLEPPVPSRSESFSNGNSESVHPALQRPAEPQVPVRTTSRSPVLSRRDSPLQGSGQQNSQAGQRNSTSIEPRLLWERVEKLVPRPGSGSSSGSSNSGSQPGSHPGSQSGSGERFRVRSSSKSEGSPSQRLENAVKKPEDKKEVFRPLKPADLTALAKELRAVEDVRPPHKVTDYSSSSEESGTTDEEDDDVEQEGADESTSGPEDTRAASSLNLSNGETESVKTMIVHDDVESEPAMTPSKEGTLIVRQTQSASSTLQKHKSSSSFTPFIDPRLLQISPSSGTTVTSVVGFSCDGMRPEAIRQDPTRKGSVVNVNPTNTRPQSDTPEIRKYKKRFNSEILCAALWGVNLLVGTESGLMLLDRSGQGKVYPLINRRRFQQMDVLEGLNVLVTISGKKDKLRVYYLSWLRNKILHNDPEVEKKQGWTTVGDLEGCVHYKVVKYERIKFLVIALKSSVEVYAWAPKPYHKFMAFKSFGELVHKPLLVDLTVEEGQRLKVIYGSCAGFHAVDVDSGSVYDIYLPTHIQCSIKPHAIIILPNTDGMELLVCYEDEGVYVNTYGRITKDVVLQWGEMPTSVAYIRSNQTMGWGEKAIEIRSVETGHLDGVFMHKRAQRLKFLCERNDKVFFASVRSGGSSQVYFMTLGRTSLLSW
Mitogen-activated protein kinase 9, sequence (P45984 whole entry): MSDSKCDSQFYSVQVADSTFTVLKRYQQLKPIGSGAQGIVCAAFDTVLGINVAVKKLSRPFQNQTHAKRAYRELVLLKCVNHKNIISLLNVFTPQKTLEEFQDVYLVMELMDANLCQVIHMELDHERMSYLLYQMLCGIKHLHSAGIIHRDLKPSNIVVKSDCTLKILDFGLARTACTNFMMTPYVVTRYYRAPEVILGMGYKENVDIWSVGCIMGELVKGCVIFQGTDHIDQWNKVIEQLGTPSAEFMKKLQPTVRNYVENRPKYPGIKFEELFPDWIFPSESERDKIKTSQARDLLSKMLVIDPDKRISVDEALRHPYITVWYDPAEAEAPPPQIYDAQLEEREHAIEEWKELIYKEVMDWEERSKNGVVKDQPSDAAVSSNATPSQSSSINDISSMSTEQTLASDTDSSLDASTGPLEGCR
Dual specificity protein kinase CLK2, sequence (P49760 whole entry): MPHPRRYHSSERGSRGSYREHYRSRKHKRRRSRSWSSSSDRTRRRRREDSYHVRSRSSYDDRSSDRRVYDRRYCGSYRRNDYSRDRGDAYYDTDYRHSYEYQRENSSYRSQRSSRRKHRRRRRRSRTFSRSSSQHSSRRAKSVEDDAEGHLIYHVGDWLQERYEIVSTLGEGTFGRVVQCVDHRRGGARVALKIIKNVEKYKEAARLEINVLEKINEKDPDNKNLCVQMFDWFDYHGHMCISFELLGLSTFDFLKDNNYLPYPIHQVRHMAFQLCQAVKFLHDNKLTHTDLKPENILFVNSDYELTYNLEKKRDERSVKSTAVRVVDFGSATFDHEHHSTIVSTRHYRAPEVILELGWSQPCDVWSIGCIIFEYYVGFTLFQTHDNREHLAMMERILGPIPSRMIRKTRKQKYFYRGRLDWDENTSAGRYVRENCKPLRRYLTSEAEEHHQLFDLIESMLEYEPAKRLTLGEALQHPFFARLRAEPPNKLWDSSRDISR
T7 sequence (P45983 1-363): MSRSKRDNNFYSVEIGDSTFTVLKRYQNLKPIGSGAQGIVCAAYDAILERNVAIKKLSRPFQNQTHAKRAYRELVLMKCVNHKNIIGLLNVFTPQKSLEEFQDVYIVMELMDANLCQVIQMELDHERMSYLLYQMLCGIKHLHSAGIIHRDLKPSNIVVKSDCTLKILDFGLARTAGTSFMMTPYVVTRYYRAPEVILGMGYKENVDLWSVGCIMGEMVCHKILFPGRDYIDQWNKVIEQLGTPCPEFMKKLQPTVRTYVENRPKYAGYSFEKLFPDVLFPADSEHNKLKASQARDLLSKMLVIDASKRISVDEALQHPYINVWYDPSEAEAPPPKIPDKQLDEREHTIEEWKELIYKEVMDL
Mitogen-activated protein kinase 10, sequence (P53779 whole entry): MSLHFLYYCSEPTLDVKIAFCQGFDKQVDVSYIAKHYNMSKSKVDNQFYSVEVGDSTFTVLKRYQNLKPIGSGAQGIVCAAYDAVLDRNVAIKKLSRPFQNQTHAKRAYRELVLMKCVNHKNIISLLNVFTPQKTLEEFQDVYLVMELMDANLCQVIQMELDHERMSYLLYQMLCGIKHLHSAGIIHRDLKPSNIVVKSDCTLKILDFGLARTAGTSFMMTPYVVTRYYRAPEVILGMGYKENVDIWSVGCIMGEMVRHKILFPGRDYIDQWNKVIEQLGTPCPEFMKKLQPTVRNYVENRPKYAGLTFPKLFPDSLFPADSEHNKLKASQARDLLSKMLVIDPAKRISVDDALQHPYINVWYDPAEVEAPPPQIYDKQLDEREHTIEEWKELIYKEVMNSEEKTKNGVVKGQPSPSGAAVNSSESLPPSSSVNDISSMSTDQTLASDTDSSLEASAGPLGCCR

Compound: O=C(Nc1ccc2[nH]nc(-c3ccncc3)c2c1)[C@H]1CCN(CC(=O)N2CCN(c3ccc(-c4ncccn4)cc3)CC2)C1 [SCH772984]
- IC50 (Misshapen-like kinase 1): 942 nM
- IC50 [1]: > 10000 nM
- IC50 [2]: 503 nM
- IC50 [3]: 304 nM
- IC50 [4]: 632 nM
- IC50 [5]: 398 nM
- IC50 (Aurora kinase C): 580 nM
- IC50 [6]: 193 nM
- IC50 [7]: 535 nM
- IC50 [8]: 8.3 nM
- IC50 [9]: 1080 nM
- IC50 [10]: 114 nM
- IC50 [11]: 104 nM
- IC50 [12]: 508 nM
- IC50 [13]: 783 nM
- Kd [14]: 297 nM
- Kd [15]: 213 nM
